Experiments:
[1] = system: Mx1 RNA in murine L929 cells; experiment: Mx1 RNA induction in vitro in L929 cells (TaqMan RT-PCR); type: cell-based
Procedure: FIG. 5 illustrates Mx1 RNA induction in vitro (in L929 cells) by mIFN-β. L929 cells were seeded at 5×10^5 cells in 6 well plates and stimulated with increasing amounts of purified recombinant mIFN-β protein. Four hours after treatment the cells were harvested, RNA isolated, and Mx1 RNA quantitated by TaqMan analysis. Mx1 RNA expression is plotted as the fold increase relative to GAPDH RNA.
A quantitative PCR/RT-PCR assay was developed to quantitate the levels of Mx1 mRNA in murine PBMC's. Specifically, peripheral blood mononuclear cells (PBMCs) were isolated from mice treated with either mIFN-β protein or following gene-based delivery of the mIFN-β gene. Blood samples obtained from treated mice were centrifuged on a ficoll cushion for 25 minutes at 2,000 rpm. Purified PBMCs were pelleted and RNA for the Mx1 assay was purified using the “RNAeasy” mini extraction kit from Qiagen. The RNA was stored in H2O at −80° C. Mx1 RT-PCR was performed using TaqMan® chemistry and analysis was done on the Applied Biosystems (ABI) PRISM® 7700 Sequence Detection instrument. For reverse transcription of the RNA and amplification of cDNA, the “One-step TaqMan® RNA” kit from ABI was used. […] The samples were analyzed with an Mx1-specific probe/primer combination. Mx1 expression was normalized to GAPDH expression measured in parallel using a standard assay from ABI. […]

IP-10 = IP-10 plasma level after bolus mIFN-β protein (ELISA); type: in vivo, C57BL/6 mice
Procedure: (§1) C57BL/6 mice were administered 15, 150, or 500 ng of purified recombinant mIFN-β protein (specific activity=2.0×10^8 units/mg) by either i.v. (via tail vein) or i.m. injection (n=3 mice per group). The mice were bled at 2, 4, 6, 12, 24, and 48 hours post-injection, and the plasma levels of IP-10 and JE were measured by ELISA (R&D Systems).

JE = JE plasma level after bolus mIFN-β protein (ELISA); type: in vivo, C57BL/6 mice
Procedure: as §1

acute EAE in SJL mice = experiment: Mouse acute EAE model, gene-based delivery of mIFN-β; type: in vivo; settings: 100,000 Units s.c. every other day
EAE in SJL mice = experiment: Murine active EAE model, mIFN-β protein and pBRES mIFN-β plasmid with MFP pellet; type: in vivo; settings: 25 days
Procedure: FIG. 39A illustrates the effect of treatment of mice with induced EAE neuroinflammation with mIFN-β protein by SC injection every other day for 25 days. SJL mice were immunized on day 1 with proteolipid peptide (PLP) amino acids 139-151/pertussis according to the protocol described in Material and Methods. Groups of mice (n=10 per group) were injected SC on day 1 with mIFN-β protein, 100,000 units (500 ng) or 300,000 units (1500 ng), or vehicle. Animals were scored for EAE disease progression and the average clinical scores are provided with the standard error of the mean score (SEM).
FIG. 39B illustrates the delay in the onset of disease and decrease in the severity of disease following administration of pBRES mIFN-β as compared to the null vector control group. SJL mice were immunized on day I with PLP 139-151/pertussis according to the protocol described. Groups of mice (n=10 per group) were injected IM on day-7 with 200 ug of either pBRES null plasmid DNA or pBRES mIFN-β plasmid DNA with electroporation. One group of mice were treated daily with Prednisolone by IP injection and served as the positive control for the study. Plasmid treated mice were administered one mifepristone (MFP) containing slow release pellets by SC injection on day-3. Animals were scored for EAE disease progression and the average clinical scores are provided with the standard error of the mean score (SEM). […]

## mIFN-β: purified recombinant murine interferon-beta protein expressed in 293E cells
[1]
  increase in the level of Mx1 RNA: 100 fold
[1]; 4 hours treatment
  EC50 of Mx1 RNA induction: approximately 50 pg/ml
IP-10; each of three doses
  time by which plasma IP-10 dropped to background: ≤ 24 h
IP-10; high dose delivered i.v.
  increase of IP-10 levels: 3000 fold
IP-10; i.v. or i.m.
  time of strong induction of IP-10 after administration: 2 h
JE; each of three doses
  time by which plasma JE dropped to background: ≤ 24 h
JE; i.v. or i.m.
  time of strong induction of JE after administration: 2 h
Acute EAE in SJL mice
  clinical scores compared to vehicle control: significantly decreased clinical scores
EAE in SJL mice; 100,000 units SC every other day
  severity of disease (clinical scores) compared to vehicle: significantly reduced the severity of the disease
EAE in SJL mice; 300,000 units SC every other day
  severity of disease (clinical scores) compared to vehicle: significantly reduced the severity of the disease

Reference: patent US20070179113A1, “GM-CSF gene therapy for Crohn's disease using an improved regulated expression system” (Schering Aktiengesellachaft, priority 2005, published 2007)
